The text below walks through data of patent US11866450B2, “Modulators of Cystic Fibrosis Transmembrane Conductance regulator, pharmaceutical compositions, methods of treatment, and process for making the modulators” (priority 2018, dated 2024).

The conditions of data set [1]: snar bond.
The target in data set [2] is CFTR-mediated chloride transport (Homo sapiens, UniProt P13569). It is filed as cell-based. The settings on record: enteroid cells incubated with test compound 18-24 hours, acute 10 μM forskolin and 300 nM Compound III; for Max. Activity: % of chloride transport with 3 μM Compound A, 3 μM Compound II and 300 nM acute Compound III triple combination control. The method, boiled down:
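Human intestinal enteroid cells incubated with compound 18–24 h at 37° C., then membrane potential dye (FLIPR) read 15 min after chloride-free stimulation with 10 μM forskolin, 100 μM IBMX and 300 nM Compound III. AUC expressed as % of triple-combination control (3 μM Compound A, 3 μM Compound II, 300 nM Compound III).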

Like-named read-outs stand apart in the source and are kept apart here.

Sequence of CFTR-mediated chloride transport (P13569 whole entry, looked up): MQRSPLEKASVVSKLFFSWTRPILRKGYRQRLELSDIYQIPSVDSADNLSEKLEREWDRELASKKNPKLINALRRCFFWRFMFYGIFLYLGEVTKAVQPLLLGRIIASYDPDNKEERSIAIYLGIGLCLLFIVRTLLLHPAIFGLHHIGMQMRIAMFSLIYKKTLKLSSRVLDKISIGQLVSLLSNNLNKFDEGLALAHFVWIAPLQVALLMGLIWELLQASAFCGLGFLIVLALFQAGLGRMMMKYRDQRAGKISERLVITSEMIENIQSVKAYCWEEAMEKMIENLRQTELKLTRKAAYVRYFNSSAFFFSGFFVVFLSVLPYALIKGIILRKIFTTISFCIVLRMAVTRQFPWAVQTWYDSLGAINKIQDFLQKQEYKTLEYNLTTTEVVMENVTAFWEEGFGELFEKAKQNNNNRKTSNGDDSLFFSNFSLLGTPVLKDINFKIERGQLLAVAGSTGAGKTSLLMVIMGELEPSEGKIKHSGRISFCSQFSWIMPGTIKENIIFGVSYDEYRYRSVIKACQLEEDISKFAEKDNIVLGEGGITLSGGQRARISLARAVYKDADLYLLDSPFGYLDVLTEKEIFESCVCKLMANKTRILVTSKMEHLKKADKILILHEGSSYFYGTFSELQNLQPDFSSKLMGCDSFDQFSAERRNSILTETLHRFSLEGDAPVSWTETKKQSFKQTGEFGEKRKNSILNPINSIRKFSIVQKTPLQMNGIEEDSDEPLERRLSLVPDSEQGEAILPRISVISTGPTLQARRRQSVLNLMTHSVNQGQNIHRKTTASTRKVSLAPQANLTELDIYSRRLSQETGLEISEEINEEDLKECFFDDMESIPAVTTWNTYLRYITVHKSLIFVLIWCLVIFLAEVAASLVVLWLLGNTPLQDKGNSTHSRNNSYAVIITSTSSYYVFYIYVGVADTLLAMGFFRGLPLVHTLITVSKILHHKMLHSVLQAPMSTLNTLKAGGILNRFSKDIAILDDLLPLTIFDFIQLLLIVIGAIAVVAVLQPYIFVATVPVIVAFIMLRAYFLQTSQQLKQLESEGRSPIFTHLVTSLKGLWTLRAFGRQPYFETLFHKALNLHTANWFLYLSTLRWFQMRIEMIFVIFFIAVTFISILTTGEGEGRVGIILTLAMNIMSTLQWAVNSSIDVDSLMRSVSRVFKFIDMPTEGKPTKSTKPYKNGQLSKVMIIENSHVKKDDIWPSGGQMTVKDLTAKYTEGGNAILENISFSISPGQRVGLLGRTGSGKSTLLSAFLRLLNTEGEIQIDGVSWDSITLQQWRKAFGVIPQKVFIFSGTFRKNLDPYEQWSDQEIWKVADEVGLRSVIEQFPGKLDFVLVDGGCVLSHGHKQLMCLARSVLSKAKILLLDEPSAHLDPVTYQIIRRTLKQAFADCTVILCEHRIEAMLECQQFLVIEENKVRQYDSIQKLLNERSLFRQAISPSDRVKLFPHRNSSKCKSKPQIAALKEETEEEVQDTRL

In data set [1] (from CC(C)(C)OC(=O)N1CC(CCCn2cc(S(=O)(=O)NC(=O)c3ccc(-n4ccc(OCCC5(C(F)(F)F)CC5)n4)nc3Cl)cn2)CC1(C)C, 14-membered ring, HCl (Boc off), K2CO3/CsF/3A MS, DMSO, 44.8 mM, 155.0 °C, 2 steps), `CC1(C)CC2CCCn3cc(cn3)S(=O)(=O)NC(=O)c3ccc(-n4ccc(OCCC5(C(F)(F)F)CC5)n4)nc3N1C2` (stereo not drawn) [Compound 110, 20,20-Dimethyl-4-(3-{2-[1-(trifluoromethyl)cyclopropyl]ethoxy}-1H-pyrazol-1-yl)-10λ^6-thia-1,3,9,13,14-pentaazatetracyclo[16.2.1.111,14.02,7]docosa-2,4,6,11(22),12-pentaene-8,10,10-trione] gave a ring closure, isolated yield of 36%. Also, in data set [2], the EC50 is less than 1 µM and the “Max. Activity” value was “++ (++ is 30-60%)”.

In turn, `CC1(C)CC2CCCCn3cc(cn3)S(=O)(=O)NC(=O)c3ccc(-n4ccc(OCCC5(C(F)(F)F)CC5)n4)nc3N1C2` (stereo not drawn) [Compound 122, 21,21-Dimethyl-4-(3-{2-[1-(trifluoromethyl)cyclopropyl]ethoxy}-1H-pyrazol-1-yl)-10λ^6-thia-1,3,9,13,14-pentaazatetracyclo[17.2.1.111,14.02,7]tricosa-2,4,6,11(23),12-pentaene-8,10,10-trione] registered a ring closure, isolated yield in data set [1] (from CC(C)(C)OC(=O)N1CC(CCCCn2cc(S(=O)(=O)NC(=O)c3ccc(-n4ccc(OCCC5(C(F)(F)F)CC5)n4)nc3Cl)cn2)CC1(C)C, 15-membered ring, K2CO3/CsF/3A MS, DMSO, 41.5 mM, 155.0 °C, 2 steps) of 50%. Moreover, in data set [2], the EC50 is less than 1 µM and the “Max. Activity” value is listed as “++ (++ is 30-60%)”.

Turning to `CN1CCCC2CN(c3nc(-n4ccc(OCCC5(C(F)(F)F)CC5)n4)ccc3C(=O)NS(=O)(=O)c3cccc1n3)C(C)(C)C2` (stereo not drawn) [Compound 133, 12,12,18-trimethyl-8-(3-{2-[1-(trifluoromethyl)cyclopropyl]ethoxy}-1H-pyrazol-1-yl)-2λ^6-thia-3,9,11,18,23-pentaazatetracyclo[17.3.1.111,14.05,10]tetracosa-1(23),5(10),6,8,19,21-hexaene-2,2,4-trione], in data set [1] (from CN(CCCC1CNC(C)(C)C1)c1cccc(S(=O)(=O)NC(=O)c2ccc(-n3ccc(OCCC4(C(F)(F)F)CC4)n3)nc2Cl)n1, 15-membered ring, K2CO3/CsF/3A MS, DMSO, 30.3 mM, 165.0 °C, 4.0 h), the ring closure, isolated yield amounted to 42%. Moreover, in data set [2], the EC50 is less than 1 µM and the “Max. Activity” value is given as “+++ (+++ is >60%)”.

In the case of `CN1CCCC2CN(c3nc(-n4ccc(OCCC5(C(F)(F)F)CC5)n4)ccc3C(=O)NS(=O)(=O)c3ccc1nc3)C(C)(C)C2` (stereo not drawn) [Compound 140, 12,12,18-Trimethyl-8-(3-{2-[1-(trifluoromethyl)cyclopropyl]ethoxy}-1H-pyrazol-1-yl)-2λ^6-thia-3,9,11,18,20-pentaazatetracyclo[17.2.2.111,14.05,10]tetracosa-1(22),5,7,9,19(23),20-hexaene-2,2,4-trione], in data set [1] (from CN(CCCC1CNC(C)(C)C1)c1ccc(S(=O)(=O)NC(=O)c2ccc(-n3ccc(OCCC4(C(F)(F)F)CC4)n3)nc2Cl)cn1, 16-membered ring, K2CO3/CsF, DMSO, 10.2 mM, 200.0 °C, 1.5 h), the ring closure, isolated yield is 12%. Besides, in data set [2], the EC50 is less than 1 µM and the “Max. Activity” value is recorded as “++ (++ is 30-60%)”.

Consider `CC1(C)CC2CCCCCc3ccc(cn3)S(=O)(=O)NC(=O)c3ccc(-n4ccc(OCCC5(C(F)(F)F)CC5)n4)nc3N1C2` (stereo not drawn) [Compound 142, 12,12-Dimethyl-8-(3-{2-[1-(trifluoromethyl)cyclopropyl]ethoxy}-1H-pyrazol-1-yl)-2λ^6-thia-3,9,11,21-tetraazatetracyclo[18.2.2.111,14.05,10]pentacosa-1(23),5,7,9,20(24),21-hexaene-2,2,4-trione], for which, in data set [1] (from 2-chloro-N-[[6-[5-(5,5-dimethylpyrrolidin-3-yl)pentyl]-3-pyridyl]sulfonyl]-6-[3-[2-[1-(trifluoromethyl)cyclopropyl]ethoxy]pyrazol-1-yl]pyridine-3-carboxamide (dihydrochloride salt), 17-membered ring, K2CO3/CsF, DMSO, 63.0 mM, 165.0 °C), the ring closure, isolated yield turned out to be 36%. Besides, in data set [2], the EC50 was less than 1 µM and the “Max. Activity” value is “+ (+ is <30%)”.

Compound `CC1(C)CC2CCCCCc3ccc(nc3)S(=O)(=O)NC(=O)c3ccc(-n4ccc(OCCC5(C(F)(F)F)CC5)n4)nc3N1C2` (stereo not drawn) [Compound 143, 12,12-dimethyl-8-(3-{2-[1-(trifluoromethyl)cyclopropyl]ethoxy}-1H-pyrazol-1-yl)-2λ^6-thia-3,9,11,22-tetraazatetracyclo[18.2.2.111,14.05,10]pentacosa-1(23),5,7,9,20(24),21-hexaene-2,2,4-trione] registered a ring closure, isolated yield in data set [1] (from CC1(C)CC(CCCCCc2ccc(S(=O)(=O)NC(=O)c3ccc(-n4ccc(OCCC5(C(F)(F)F)CC5)n4)nc3Cl)nc2)CN1, 17-membered ring, K2CO3/CsF, DMSO, 45.1 mM, 165.0 °C, 17.0 h) of 11%. In data set [2], the EC50 was 1 to 3 µM and the “Max. Activity” value is reported as “+ (+ is <30%)”.

In data set [1] (from Cc1cc(S(=O)(=O)NC(=O)c2ccc(-n3ccc(OCCC4(C(F)(F)F)CC4)n3)nc2Cl)nn1CCCC1CN(C(=O)OC(C)(C)C)C(C)(C)C1, 14-membered ring, K2CO3/CsF/3A MS, DMSO, 44.1 mM, 155.0 °C, 2 steps), `Cc1cc2nn1CCCC1CN(c3nc(-n4ccc(OCCC5(C(F)(F)F)CC5)n4)ccc3C(=O)NS2(=O)=O)C(C)(C)C1` (stereo not drawn) [Compound 144, 13,20,20-Trimethyl-4-(3-{2-[1-(trifluoromethyl)cyclopropyl]ethoxy}-1H-pyrazol-1-yl)-10λ^6-thia-1,3,9,14,22-pentaazatetracyclo[16.2.1.111,14.02,7]docosa-2,4,6,11(22),12-pentaene-8,10,10-trione] displayed a ring closure, isolated yield of 38%. Also, in data set [2], the EC50 is less than 1 µM and the “Max. Activity” value is “++ (++ is 30-60%)”.

On to `CC1(C)C[C@@H]2CCCNc3cccc(n3)S(=O)(=O)NC(=O)c3ccc(-n4ccc(OCCCC5(C(F)(F)F)CC5)n4)nc3N1C2` [Compound 161, (14S)-12,12-dimethyl-8-(3-{3-[1-(trifluoromethyl)cyclopropyl]propoxy}-1H-pyrazol-1-yl)-2λ^6-thia-3,9,11,18,23-pentaazatetracyclo[17.3.1.111,14.05,10]tetracosa-1(22),5,7,9,19(23),20-hexaene-2,2,4-trione], for which the ring closure, isolated yield in data set [1] (from 2-chloro-N-[[6-[3-[(3S)-5,5-dimethylpyrrolidin-3-yl]propylamino]-2-pyridyl]sulfonyl]-6-[3-[3-[1-(trifluoromethyl)cyclopropyl]propoxy]pyrazol-1-yl]pyridine-3-carboxamide (dihydrochloride salt), 15-membered ring, K2CO3/CsF, NMP, 83.9 mM, 150.0 °C) is 55%. In addition, in data set [2], the EC50 was less than 1 µM and the “Max. Activity” value was “+++ (+++ is >60%)”.

In data set [1] (from CC1(C)CC(CCCn2ccc(S(=O)(=O)NC(=O)c3ccc(-n4ccc(OCCC5C6(CC6)C56CC6)n4)nc3Cl)n2)CN1, 14-membered ring, K2CO3/CsF/3A MS, DMSO, 53.1 mM, 155.0 °C), `CC1(C)CC2CCCn3ccc(n3)S(=O)(=O)NC(=O)c3ccc(-n4ccc(OCCC5C6(CC6)C56CC6)n4)nc3N1C2` (stereo not drawn) [Compound 176, 4-[3-(2-{dispiro[2.0.2.1]heptan-7-yl}ethoxy)-1H-pyrazol-1-yl]-20,20-dimethyl-10λ^6-thia-1,3,9,14,22-pentaazatetracyclo[16.2.1.111,14.02,7]docosa-2,4,6,11(22),12-pentaene-8,10,10-trione] registered a ring closure, isolated yield of 40%. In addition, in data set [2], the concentration giving a half-maximal response (EC50) is less than 1 µM and the “Max. Activity” value was “+++ (+++ is >60%)”.

`CC1(C)C[C@@H]2CCCNc3cccc(n3)S(=O)(=O)NC(=O)c3ccc(-n4ccc(OCCC5C(C)(C)C5(C)C)n4)nc3N1C2` [Compound 185, (14S)-12,12-Dimethyl-8-{3-[2-(2,2,3,3-tetramethylcyclopropyl)ethoxy]-1H-pyrazol-1-yl}-2λ^6-thia-3,9,11,18,23-pentaazatetracyclo[17.3.1.111,14.05,10]tetracosa-1(23),5(10),6,8,19,21-hexaene-2,2,4-trione] had a ring closure, isolated yield in data set [1] (from CC(C)(C)OC(=O)N1C[C@@H](CCCNc2cccc(S(=O)(=O)NC(=O)c3ccc(-n4ccc(OCCC5C(C)(C)C5(C)C)n4)nc3Cl)n2)CC1(C)C, 15-membered ring, K2CO3/3A MS, DMSO, 37.9 mM, 160.0 °C, 2 steps) of 19%. In data set [2], the half-maximal effective concentration (EC50) is less than 1 µM and the “Max. Activity” value was “+++ (+++ is >60%)”.

`CC1(C)C[C@@H]2CCCn3ccc(n3)S(=O)(=O)NC(=O)c3ccc(-n4ccc(OCCC5C6(CC6)C56CC6)n4)nc3N1C2` [Compound 187, (18S)-4-[3-(2-{Dispiro[2.0.2.1]heptan-7-yl}ethoxy)-1H-pyrazol-1-yl]-20,20-dimethyl-10λ^6-thia-1,3,9,14,22-pentaazatetracyclo[16.2.1.111,14.02,7]docosa-2,4,6,11(22),12-pentaene-8,10,10-trione] came in with a ring closure, isolated yield in data set [1] (from CC1(C)C[C@H](CCCn2ccc(S(=O)(=O)NC(=O)c3ccc(-n4ccc(OCCC5C6(CC6)C56CC6)n4)nc3Cl)n2)CN1, 14-membered ring, K2CO3/CsF/3A MS, DMSO, 26.2 mM, 155.0 °C, 18.0 h) of 72%. In data set [2], the EC50 was less than 1 µM and the “Max. Activity” value was “+++ (+++ is >60%)”.

As for `CC1(C)C[C@H]2CCCNc3cccc(n3)S(=O)(=O)NC(=O)c3ccc(-n4ccc(OCCC5C6(CC6)C56CC6)n4)nc3N1C2` [Compound 194, (14R)-8-[3-(2-{Dispiro[2.0.2.1]heptan-7-yl}ethoxy)-1H-pyrazol-1-yl]-12,12-dimethyl-2λ^6-thia-3,9,11,18,23-pentaazatetracyclo[17.3.1.111,14.05,10]tetracosa-1(22),5,7,9,19(23),20-hexaene-2,2,4-trione], the ring closure, isolated yield in data set [1] (from CC1(C)C[C@@H](CCCNc2cccc(S(=O)(=O)NC(=O)c3ccc(-n4ccc(OCCC5C6(CC6)C56CC6)n4)nc3Cl)n2)CN1, 15-membered ring, K2CO3, NMP, 72.4 mM, 135.0 °C, 22.0 h) amounted to 57%. In addition, in data set [2], the EC50 is less than 1 µM and the “Max. Activity” value is on record as “++ (++ is 30-60%)”.
